Test systems include XF 498 CNS; RXF-631 renal; M19-MEL melanoma; DMS 273 small cell lung; LXFL 529 NSCLC; DLD-1 colon; HOP-18 NSCLC.
Common to all, as to experiment: NCI anticancer screen, dose series, 48 h

Each structure is given as a SMILES string. Several values for one entry are separate records, joined by “and”; a condition that tells them apart may be missing. Identical values can stand only once.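 Values below derive from 48-hour exposures of cells grown in 96-well plates, with endpoints linearly interpolated between the two concentrations bracketing the appropriate inhibition level. Abbreviation: GI50, concentration required for 50% inhibition of growth. The concentration for full growth arrest is given as TGI.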

As for `CCc1ccccc1NC(=O)/C(N=O)=C(/C)O`, the TGI in the assay on XF 498 CNS, with RXF-631 renal, with M19-MEL melanoma, with DMS 273 small cell lung, in the assay on LXFL 529 NSCLC and in the assay on DLD-1 colon was more than 100 µM each time. For the same molecule, the TGI in the assay with HOP-18 NSCLC was more than 100 µM.
For the molecule `COc1cccc(NC(=O)CC(=O)N2N=C(n3ccc4ccccc43)CC2c2ccccc2)c1` (configuration not stated), the TGI in the assay on M19-MEL melanoma, with DMS 273 small cell lung, in the assay on LXFL 529 NSCLC, in the assay with DLD-1 colon and with HOP-18 NSCLC was more than 100 µM in each case.
In the case of `N#CNC(=NCCc1c[nH]c2ccccc12)Oc1ccccc1`, the TGI in the assay on XF 498 CNS, in the assay on M19-MEL melanoma, in the assay with DMS 273 small cell lung, with LXFL 529 NSCLC and with DLD-1 colon was more than 100 µM each time.
Take `NC(=O)NC12CC3CC(CC(F)(C3)C1)C2`: the TGI with XF 498 CNS, with RXF-631 renal, with M19-MEL melanoma, with DMS 273 small cell lung, in the assay on LXFL 529 NSCLC and with DLD-1 colon was more than 100 µM in each case.
`O=C1c2ccccc2N2Oc3ccccc3C12c1ccccc1` (configuration not stated): the TGI in the assay with M19-MEL melanoma, in the assay with DMS 273 small cell lung, in the assay with LXFL 529 NSCLC and in the assay on HOP-18 NSCLC was more than 100 µM each time.
`COc1cc(C2c3cc4c(cc3[C@@H](NCCN3CCOCC3)C3COC(=O)[C@H]23)OCO4)cc(OC)c1O` (some centres not stated): the TGI in the assay with DMS 273 small cell lung was 7.72 µM and 5.44 µM; in the assay with LXFL 529 NSCLC, 34.1 µM and > 17.5 µM; in the assay with DLD-1 colon it was 22.8 µM and > 17.5 µM; in the assay on HOP-18 NSCLC, 32.9 µM and > 17.5 µM.
Regarding `CCc1cccc(C)c1NC(=O)C1=C(C)NC(C)=C(C(=O)Nc2c(C)cccc2CC)C1c1ccc2c(c1)OCO2`, the TGI came out at 31 µM in the assay on XF 498 CNS; 54 µM in the assay with RXF-631 renal; 45.6 µM in the assay on M19-MEL melanoma; 39.9 µM in the assay on LXFL 529 NSCLC; 47.5 µM in the assay on DLD-1 colon.
Regarding `CC(Oc1ccc(OCC2CCCCC2)cc1)C(=O)NCc1ccco1` (configuration not stated), the TGI was more than 100 µM in the assay on XF 498 CNS; more than 100 µM in the assay on M19-MEL melanoma; 94.1 µM in the assay with DMS 273 small cell lung; more than 100 µM in the assay with LXFL 529 NSCLC; more than 100 µM with DLD-1 colon; more than 100 µM in the assay with HOP-18 NSCLC.
For the molecule `CCOc1ccc(NC(=O)C(=O)C(C(=O)c2ccc3ccccc3c2)C2OC(=O)c3ccccc32)cc1` (configuration not stated), the TGI in the assay with XF 498 CNS is 60.6 µM; with M19-MEL melanoma it was 34.6 µM; in the assay on DMS 273 small cell lung, 47 µM; with LXFL 529 NSCLC, 37.4 µM; in the assay on DLD-1 colon, 30.1 µM; in the assay on HOP-18 NSCLC, 78.1 µM.
With `COc1ccc(CC2(Cc3ccc(OC)cc3)CCOC2=O)cc1`, the TGI in the assay on XF 498 CNS is 26.1 µM; in the assay on M19-MEL melanoma it was more than 100 µM; in the assay on LXFL 529 NSCLC it was more than 100 µM; in the assay with DLD-1 colon, more than 100 µM.
For `COc1cc2c(cc1OC)[C@@H](Nc1ccc(F)cc1)C1COC(=O)[C@@H]1C2c1cc(OC)c(O)c(OC)c1` (some centres not stated), the TGI in the assay on XF 498 CNS is more than 24.7 µM; in the assay on RXF-631 renal, more than 82.7 µM; with M19-MEL melanoma, more than 100 µM; in the assay on DMS 273 small cell lung, 8.41 µM; with LXFL 529 NSCLC it was more than 100 µM; with DLD-1 colon it was 40.5 µM. The same molecule displayed a TGI in the assay on HOP-18 NSCLC of more than 100 µM.
In the case of `O=C1C(c2cnc3ccccc3n2)=C(O)c2ccccc21`, the TGI with RXF-631 renal, with M19-MEL melanoma, in the assay with DMS 273 small cell lung, in the assay with LXFL 529 NSCLC and with DLD-1 colon was more than 100 µM in each case.
Consider `CCN(CC)c1oc(N(CC)CC)c(C(=O)Nc2ccccn2)c(=O)c1C(C)=O`, for which the TGI with XF 498 CNS, in the assay on M19-MEL melanoma, in the assay with DMS 273 small cell lung, in the assay on LXFL 529 NSCLC and with DLD-1 colon was more than 100 µM each time.
`COc1ccc2nc3cc(Cl)ccc3c(SCC(=O)Nc3ccccc3-c3ccccc3NC(=O)CSc3c4ccc(Cl)cc4nc4ccc(OC)cc34)c2c1`: the TGI with XF 498 CNS, with M19-MEL melanoma, in the assay on DMS 273 small cell lung, in the assay on LXFL 529 NSCLC, in the assay on DLD-1 colon and with HOP-18 NSCLC was more than 100 µM each time.
Regarding `COC1=C(C)C(=O)c2c(cc3c(c2O)C(C)(CCC=C(C)C)C(C)O3)C1=O` (configuration not stated), the TGI is more than 100 µM in the assay on XF 498 CNS; 30.1 µM in the assay with M19-MEL melanoma; more than 86.4 µM with DMS 273 small cell lung; more than 100 µM in the assay with LXFL 529 NSCLC; more than 100 µM in the assay on DLD-1 colon; more than 78.7 µM with HOP-18 NSCLC.
Take `CC(=O)O[C@H]1CCC2[C@@H]3CCC4c5nonc5CC[C@]4(C)C3CC[C@@]21C` (some centres not stated): the GI50 in the assay on M19-MEL melanoma is more than 100 µM. Besides, the TGI in the assay with M19-MEL melanoma was more than 100 µM; with DMS 273 small cell lung it was more than 10 µM; in the assay with LXFL 529 NSCLC it was more than 10 µM; in the assay on DLD-1 colon, more than 10 µM; in the assay with HOP-18 NSCLC, more than 10 µM.
